This is an account of results in PubChem BioAssay (NCI).

“And” between values parts separate entries of the source, which are not always exact repeats. Equal entries are not always repeated.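 Five concentrations, 48 hours, 96-well plates. At the GI50, growth is halved. TGI: concentration producing complete growth inhibition.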 Bounds are passed on as bounds.

Some test systems named below: XF 498 CNS; MALME-3M melanoma; SNB-78 CNS; NCI-H23 lung; HOP-62 NSCLC; SF-268 CNS; OVCAR-4 ovarian; OVCAR-3 ovarian; NCI-H460 lung; NCI/ADR-RES ovarian; BT-549 breast.
Holding throughout (assay): NCI-60 cell line screen, 48 h

In the case of `Cc1occ2c1C(=O)CC1C2[C@@H](O)CC2C(C)(C)CCC[C@]12C` (stereo partly drawn), the TGI in the experiment on XF 498 CNS, with MALME-3M melanoma, in the experiment on SNB-78 CNS, with NCI-H23 lung, in the experiment on HOP-62 NSCLC and with SF-268 CNS was above 100 µM in each case. The compound also displayed a TGI in the experiment on OVCAR-4 ovarian above 100 µM.

For the compound `C#CCSc1nc(N)c2ncn(C3OC(COP(=O)(O)O)C(O)C3O)c2n1` (stereo not drawn), the TGI with XF 498 CNS, in the experiment with MALME-3M melanoma, with SNB-78 CNS, in the experiment on NCI-H23 lung, in the experiment on HOP-62 NSCLC and with OVCAR-3 ovarian was above 239 µM throughout. For the same compound, the TGI with SF-268 CNS, with OVCAR-4 ovarian and in the experiment with NCI-H460 lung was above 239 µM each time.

Take `COC(=O)C1=C(C)N(NC(=O)c2ccccc2)C2(O)CCCC(=O)C12C` (stereo not drawn): the TGI with XF 498 CNS, in the experiment with MALME-3M melanoma, with SNB-78 CNS, in the experiment with NCI-H23 lung, with OVCAR-3 ovarian and in the experiment on OVCAR-4 ovarian was above 100 µM each time.

Take `CN1Cc2c(nc(-c3ccc(Br)cc3)c[n+]2[O-])N(C)C1`: the TGI in the experiment with XF 498 CNS, in the experiment with MALME-3M melanoma, in the experiment on SNB-78 CNS, in the experiment on NCI-H23 lung, in the experiment with HOP-62 NSCLC and in the experiment with OVCAR-3 ovarian was above 100 µM in each case. In addition, the TGI in the experiment on SF-268 CNS, in the experiment on OVCAR-4 ovarian and in the experiment on NCI-H460 lung was above 100 µM in each case.

For `CC(=O)Nc1ccc(C(=O)N2N=C(C)/C(=C/c3cccc([N+](=O)[O-])c3)C2=O)cc1`, the TGI in the experiment with MALME-3M melanoma, in the experiment with SNB-78 CNS, with NCI-H23 lung, with HOP-62 NSCLC, in the experiment with OVCAR-3 ovarian and in the experiment on SF-268 CNS was above 100 µM each time. The TGI in the experiment with OVCAR-4 ovarian and with NCI-H460 lung was above 100 µM in each case.

As to `COC1=CC(=O)c2c(O)c3c(c(O)c2C1=O)C[C@](C)(O)C[C@@H]3O`, the TGI in the experiment on XF 498 CNS was 9.5 µM; in the experiment on MALME-3M melanoma it was 2.59 µM; in the experiment on NCI/ADR-RES ovarian it was 29 µM; in the experiment on SNB-78 CNS, 16.3 µM; in the experiment on NCI-H23 lung, 6.7 µM; in the experiment with HOP-62 NSCLC, 19.7 µM. For the same compound, the TGI in the experiment on BT-549 breast came to 22.5 µM; with OVCAR-3 ovarian it was 5.29 µM; with SF-268 CNS, 32.8 µM; in the experiment with OVCAR-4 ovarian, 13.1 µM; in the experiment on NCI-H460 lung, 6.84 µM.

Turning to `C=CCC1(CC)C(=O)NC(=O)NC1=O`, the TGI with MALME-3M melanoma, with SNB-78 CNS, with NCI-H23 lung, in the experiment with HOP-62 NSCLC, in the experiment with OVCAR-3 ovarian and in the experiment on SF-268 CNS was above 100 µM each time. The compound also displayed a TGI with NCI-H460 lung above 100 µM.

Turning to `COc1cccc(NC(=O)CC(=O)NNCC(=O)Nc2nnc(-c3ccc(N(CCC#N)S(=O)(=O)c4ccccc4)cc3)s2)c1`, the TGI in the experiment on XF 498 CNS, with MALME-3M melanoma, in the experiment on SNB-78 CNS, with NCI-H23 lung, in the experiment with HOP-62 NSCLC and with OVCAR-3 ovarian was above 100 µM throughout. Also, the TGI in the experiment with SF-268 CNS and in the experiment on OVCAR-4 ovarian was above 100 µM throughout.

Regarding `CN(/N=N/c1nc[nH]c1C(N)=O)C1CCCCC1`, the TGI in the experiment on XF 498 CNS, in the experiment on MALME-3M melanoma, with SNB-78 CNS, with NCI-H23 lung, in the experiment with HOP-62 NSCLC and in the experiment on OVCAR-3 ovarian was above 100 µM in each case. Also, the TGI in the experiment with SF-268 CNS, in the experiment with OVCAR-4 ovarian and in the experiment on NCI-H460 lung was above 100 µM throughout.

For `CC(C)C(C/C=C1/CC(CO)(COC(=O)C2CCCCC2)OC1=O)C(C)C` (stereo not drawn), the TGI amounted to 42.3 µM with MALME-3M melanoma; 42.7 µM in the experiment with NCI/ADR-RES ovarian; 35.9 µM in the experiment with NCI-H23 lung; 26.9 µM with HOP-62 NSCLC; 54.8 µM in the experiment with BT-549 breast; 34.5 µM in the experiment on OVCAR-3 ovarian. In addition, the TGI amounted to 33.8 µM in the experiment with SF-268 CNS, 41.4 µM in the experiment with OVCAR-4 ovarian and 89.6 µM with NCI-H460 lung.

As for `Cc1ccc(OCC2OC(n3cnc4c(Cl)ncnc43)CC2Oc2ccc(C)cc2)cc1` (stereo not drawn), the GI50 was 20.2 µM and 2.68 µM with MALME-3M melanoma; 3.03 µM and 11.9 µM with NCI-H23 lung; 4.29 µM and 17.5 µM in the experiment on HOP-62 NSCLC; 3.16 µM and 8.9 µM in the experiment on OVCAR-3 ovarian; 2.57 µM and 10.6 µM in the experiment with OVCAR-4 ovarian; 3.71 µM and 13.4 µM in the experiment with NCI-H460 lung. In addition, the TGI is 55.8 µM and 8.66 µM in the experiment with MALME-3M melanoma; 36.5 µM and 40.8 µM in the experiment on NCI/ADR-RES ovarian; 7.99 µM and 27.8 µM with NCI-H23 lung; 13 µM and 38 µM in the experiment on HOP-62 NSCLC; 40 µM and 49.9 µM in the experiment with BT-549 breast; 9.72 µM and 27.7 µM in the experiment with OVCAR-3 ovarian. In addition, the TGI with SF-268 CNS was 21.8 µM and 26.9 µM; in the experiment with OVCAR-4 ovarian, 13.1 µM and > 56.6 µM; with NCI-H460 lung, 18.3 µM and > 48.5 µM.
